Measured values published in patent US20130197080A1, “USE OF TERIFLUNOMIDE FOR TREATING MULTIPLE SCLEROSIS” (SANOFI, priority 2010, published 2013).
Several values for one entry are separate records, joined by “and”; a condition that tells them apart may be missing. Equal entries are not always repeated.

System: patients with RMS
Assay: TEMSO Phase III trial: safety and tolerability (adverse events, laboratory tests)
Settings: for incidence of ALT increase (≧1×ULN) / incidence of ALT ≧3×ULN: laboratory; for proportion of patients with TEAEs potentially related to hypersensitivity/skin disorders: selected SMQs terms; for patients with increased ALT ≧3×ULN and total bilirubin ≧2×ULN: considered non drug-induced
[1] = 7 mg once daily oral, safety population (N = 368)
[2] = 14 mg once daily oral, safety population (N = 358)
[3] = teriflunomide treatment, occurred over the first 3 months, slightly more marked with 14 mg

Protocol: Following a screening phase of up to 4 weeks, eligible patients were randomized (1:1:1) to receive a once-daily oral dose of placebo or teriflunomide, 7 mg or 14 mg, for 108 weeks. Randomization was stratified by baseline EDSS score (≦3.5 and >3.5) and by trial site. Participants successfully completing the study were eligible to enter a long-term extension.
Safety was evaluated by the occurrence of adverse events reported by the patient or the investigator. Laboratory tests were performed during screening, at baseline, and then every 2 weeks for the first 24 weeks, then every 6 weeks until study completion. Physical and neurologic examinations were performed at Week 12 and then every 24 weeks. An abdominal ultrasound to assess pancreatic abnormalities was done prior to the study and then every 24 weeks.
Laboratory testing of liver function and complete blood cell count with differential were performed at baseline, then every 2 weeks for the first 24 weeks of treatment and every 6 weeks thereafter. Patients with any of the following adverse events were discontinued from the study and were subsequently followed-up: • Any confirmed increase (repeated value within 48 hours) in alanine aminotransferase (≧3×ULN) with or without increase in total bilirubin level • Any occurrence of confirmed neutrophil count less than 1.0×10^9 cells/L with or without infection • Any potentially life-threatening cytopenias detected during the follow-up of laboratory abnormalities as per the investigator's judgment
Laboratory testing of pancreatic enzymes was performed at baseline, then every 2 weeks for the first 24 weeks of treatment and every 6 weeks thereafter. An abdominal ultrasound was performed at baseline and then every 24 weeks until study completion. Any suspected abnormal ultrasound was followed up with a CT scan with contrast, or by MRI.
Serum pregnancy testing was performed at baseline, Week 10, Week 24 and then every 12 weeks thereafter. If the pregnancy test was positive, the study medication was discontinued, and the physician was required to inform the patient of the risk of pregnancy and to discuss the potential alternatives. If the patient decided to continue with their pregnancy, a washout was required. If the patient decided not to continue with their pregnancy, the study medication could be resumed 2 weeks after termination of the pregnancy.

C/C(O)=C(\C#N)C(=O)Nc1ccc(C(F)(F)F)cc1 [teriflunomide, (Z)-2-cyano-3-hydroxy-but-2-enoic acid-(4′-trifluoromethylphenyl)-amide]
Serious adverse event, Blood disorders: Anemia (7 mg (N = 368)): 1 (0.3%) n (%) | Serious adverse event, Blood disorders: Neutropenia (7 mg (N = 368)): 0 n (%) | Serious adverse event, Blood disorders: Neutrophil count decreased (7 mg (N = 368)): 0 n (%) | Serious adverse event, Hepatic and hepatobiliary disorders: Alanine aminotransferase increased (7 mg (N = 368)): 5 (1.4%) n (%) | Serious adverse event, Hepatic and hepatobiliary disorders: Hepatic enzyme increased (7 mg (N = 368)): 0 n (%) | Serious adverse event, Hepatic and hepatobiliary disorders: Hepatitis toxic (7 mg (N = 368)): 0 n (%) | Serious adverse event, Hepatic and hepatobiliary disorders: Liver injury (7 mg (N = 368)): 1 (0.3%) n (%) | Serious adverse event, Hepatic and hepatobiliary disorders: Transaminases increased (7 mg (N = 368)): 1 (0.3%) n (%) | Serious adverse event, Infections: Appendicitis (7 mg (N = 368)): 2 (0.5%) n (%) | Serious adverse event, Infections: Bacteremia (7 mg (N = 368)): 0 n (%) | Serious adverse event, Infections: Cellulitis (7 mg (N = 368)): 0 n (%) | Serious adverse event, Infections: Cytomegalovirus hepatitis (7 mg (N = 368)): 0 n (%) | Serious adverse event, Infections: Erysipelas (7 mg (N = 368)): 1 (0.3%) n (%) | Serious adverse event, Infections: Gastroenteritis (7 mg (N = 368)): 0 n (%) | Serious adverse event, Infections: Hepatitis C (7 mg (N = 368)): 0 n (%) | Serious adverse event, Infections: Herpes zoster (7 mg (N = 368)): 0 n (%) | Serious adverse event, Infections: Infected cyst (7 mg (N = 368)): 1 (0.3%) n (%) | Serious adverse event, Infections: Lung infection (7 mg (N = 368)): 0 n (%) | Serious adverse event, Infections: Pneumonia (7 mg (N = 368)): 2 (0.5%) n (%) | Serious adverse event, Infections: Pyelonephritis (7 mg (N = 368)): 0 n (%) | Serious adverse event, Infections: Renal abscess (7 mg (N = 368)): 0 n (%) | Serious adverse event, Infections: Urinary tract infection (7 mg (N = 368)): 0 n (%) | Serious adverse event, Infections: Urinary tract infection enterococcal (7 mg (N = 368)): 0 n (%) | Serious adverse event, Malignant neoplasms: Breast cancer (7 mg (N = 368)): 0 n (%) | Serious adverse event, Malignant neoplasms: Cervix carcinoma stage 0 (7 mg (N = 368)): 0 n (%) | Serious adverse event, Malignant neoplasms: Thyroid cancer (7 mg (N = 368)): 0 n (%) | Serious adverse event, Pancreatic disorders: Lipase increased (7 mg (N = 368)): 2 (0.5%) n (%) | Serious adverse event, Pancreatic disorders: Pancreatitis (7 mg (N = 368)): 0 n (%) | TEAE potentially related to hypersensitivity/skin reactions: Erythema (7 mg (N = 368)): 7 (1.9%) n (%) | TEAE potentially related to hypersensitivity/skin reactions: Pruritus (7 mg (N = 368)): 13 (3.5%) n (%) | TEAE potentially related to hypersensitivity/skin reactions: Pruritus rash (7 mg (N = 368)): 2 (0.5%) n (%) | TEAE potentially related to hypersensitivity/skin reactions: Urticaria (7 mg (N = 368)): 4 (1.1%) n (%) | Polyneuropathy incidence (7 mg group): 0.3% | TEAEs (patients) (7 mg group): 89.1% | TEAEs leading to treatment discontinuation (7 mg group): 9.8% | diarrhea leading to treatment discontinuation (7 mg group): 0.3% | hair thinning/decreased hair density leading to treatment discontinuation (7 mg group): 0.5% | incidence of serious hepatic disorders (ALT >8×ULN and/or ALT >3×ULN with total bilirubin >3 mg/dL and/or any hepatic event with seriousness criterion) (7 mg group): 1.9% | incidence of serious infections (7 mg group): 1.6% | induced abortions among pregnancies during the trial (7 mg group): 5 | nausea leading to treatment discontinuation (7 mg group): 0.3% | neutropenia disorders (patients) (7 mg group): 2.2% | patients with mild or moderate peripheral neuropathy with conduction confirmation (7 mg group): four | proportion of patients experiencing any bone marrow TEAE (7 mg group): 9.8% | proportion of patients with TEAEs related to blood pressure increase (7 mg group): 5.4% | serious TEAEs (patients) (7 mg group): 14.1% | incidence of ALT increase (≧1×ULN) (7 mg group): 54.0% | incidence of ALT ≧3×ULN (7 mg group): 6.3% | proportion of patients with TEAEs potentially related to hypersensitivity/skin disorders (7 mg group): 10.3% | neutrophil count decrease in case of neutropenia leading to treatment discontinuation (7 mg group, single patient): 8.7e+08 L⁻¹ | neutrophil count after recovery (7 mg group, single patient, three days after treatment discontinuation): 1.34e+09 L⁻¹ | patients with increased ALT ≧3×ULN and total bilirubin ≧2×ULN (7 mg group): one | Any event leading to death [1]: 0 n (%) | Any treatment emergent adverse event leading to discontinuation of study drug [1]: 36 (9.8) n (%) | Any treatment emergent serious adverse event [1]: 52 (14.1) n (%) | At least one treatment emergent adverse event [1]: 328 (89.1) n (%) | TEAE Alanine aminotransferase increased (reported as adverse event by the investigator) [1]: 44 (12.0) no. of patients (%) | TEAE Back pain [1]: 39 (10.6) no. of patients (%) | TEAE Diarrhea [1]: 54 (14.7) no. of patients (%) | TEAE Fatigue [1]: 47 (12.8) no. of patients (%) | TEAE Hair thinning/decreased hair density (MedDRA: alopecia) [1]: 38 (10.3) no. of patients (%) | TEAE Headache [1]: 81 (22.0) no. of patients (%) | TEAE Nasopharyngitis [1]: 94 (25.5) no. of patients (%) | TEAE Nausea [1]: 33 (9.0) no. of patients (%) | TEAE Pain in extremity [1]: 26 (7.1) no. of patients (%) | TEAE Urinary tract infection [1]: 27 (7.3) no. of patients (%) | Serious adverse event, Blood disorders: Anemia (14 mg (N = 358)): 0 n (%) | Serious adverse event, Blood disorders: Neutropenia (14 mg (N = 358)): 1 (0.3%) n (%) | Serious adverse event, Blood disorders: Neutrophil count decreased (14 mg (N = 358)): 1 (0.3%) n (%) | Serious adverse event, Hepatic and hepatobiliary disorders: Alanine aminotransferase increased (14 mg (N = 358)): 5 (1.4%) n (%) | Serious adverse event, Hepatic and hepatobiliary disorders: Hepatic enzyme increased (14 mg (N = 358)): 1 (0.3%) n (%) | Serious adverse event, Hepatic and hepatobiliary disorders: Hepatitis toxic (14 mg (N = 358)): 1 (0.3%) n (%) | Serious adverse event, Hepatic and hepatobiliary disorders: Liver injury (14 mg (N = 358)): 0 n (%) | Serious adverse event, Hepatic and hepatobiliary disorders: Transaminases increased (14 mg (N = 358)): 1 (0.3%) n (%) | Serious adverse event, Infections: Appendicitis (14 mg (N = 358)): 0 n (%) | Serious adverse event, Infections: Bacteremia (14 mg (N = 358)): 1 (0.3%) n (%) | Serious adverse event, Infections: Cellulitis (14 mg (N = 358)): 0 n (%) | Serious adverse event, Infections: Cytomegalovirus hepatitis (14 mg (N = 358)): 1 (0.3%) n (%) | Serious adverse event, Infections: Erysipelas (14 mg (N = 358)): 0 n (%) | Serious adverse event, Infections: Gastroenteritis (14 mg (N = 358)): 1 (0.3%) n (%) | Serious adverse event, Infections: Hepatitis C (14 mg (N = 358)): 0 n (%) | Serious adverse event, Infections: Herpes zoster (14 mg (N = 358)): 0 n (%) | Serious adverse event, Infections: Infected cyst (14 mg (N = 358)): 0 n (%) | Serious adverse event, Infections: Lung infection (14 mg (N = 358)): 0 n (%) | Serious adverse event, Infections: Pneumonia (14 mg (N = 358)): 0 n (%) | Serious adverse event, Infections: Pyelonephritis (14 mg (N = 358)): 3 (0.8%) n (%) | Serious adverse event, Infections: Renal abscess (14 mg (N = 358)): 1 (0.3%) n (%) | Serious adverse event, Infections: Urinary tract infection (14 mg (N = 358)): 1 (0.3%) n (%) | Serious adverse event, Infections: Urinary tract infection enterococcal (14 mg (N = 358)): 1 (0.3%) n (%) | Serious adverse event, Malignant neoplasms: Breast cancer (14 mg (N = 358)): 0 n (%) | Serious adverse event, Malignant neoplasms: Cervix carcinoma stage 0 (14 mg (N = 358)): 1 (0.3%) n (%) | Serious adverse event, Malignant neoplasms: Thyroid cancer (14 mg (N = 358)): 0 n (%) | Serious adverse event, Pancreatic disorders: Lipase increased (14 mg (N = 358)): 0 n (%) | Serious adverse event, Pancreatic disorders: Pancreatitis (14 mg (N = 358)): 0 n (%) | TEAE potentially related to hypersensitivity/skin reactions: Erythema (14 mg (N = 358)): 4 (1.1%) n (%) | TEAE potentially related to hypersensitivity/skin reactions: Pruritus (14 mg (N = 358)): 10 (2.8%) n (%) | TEAE potentially related to hypersensitivity/skin reactions: Pruritus rash (14 mg (N = 358)): 1 (0.3%) n (%) | TEAE potentially related to hypersensitivity/skin reactions: Urticaria (14 mg (N = 358)): 3 (0.8%) n (%) | Polyneuropathy incidence (14 mg group): 0.8% | TEAEs (patients) (14 mg group): 90.8% | TEAEs leading to treatment discontinuation (14 mg group): 10.9% | diarrhea leading to treatment discontinuation (14 mg group): 0.3% | hair thinning/decreased hair density leading to treatment discontinuation (14 mg group): 1.4% | incidence of serious hepatic disorders (ALT >8×ULN and/or ALT >3×ULN with total bilirubin >3 mg/dL and/or any hepatic event with seriousness criterion) (14 mg group): 2.5% | incidence of serious infections (14 mg group): 2.5% | induced abortions among pregnancies during the trial (14 mg group): 1 | nausea leading to treatment discontinuation (14 mg group): 0.0% | neutropenia disorders (patients) (14 mg group): 4.5% | patients who discontinued treatment due to pruritus (14 mg group): One | patients with mild or moderate peripheral neuropathy with conduction confirmation (14 mg group): six | proportion of patients experiencing any bone marrow TEAE (14 mg group): 7.5% | proportion of patients with TEAEs related to blood pressure increase (14 mg group): 5.0% | serious TEAEs (patients) (14 mg group): 15.9% | spontaneous abortions among pregnancies during the trial (14 mg group): 3 | incidence of ALT increase (≧1×ULN) (14 mg group): 57.3% | incidence of ALT ≧3×ULN (14 mg group): 6.7% | proportion of patients with TEAEs potentially related to hypersensitivity/skin disorders (14 mg group): 11.2% | neutrophil count in cases of moderate neutrophil count decrease (serious AEs) (14 mg group, two patients): 9.5e+08 L⁻¹ and 9e+08 L⁻¹ | neutrophil count after recovery (14 mg group, two patients, a few days later, treatment continuing): 2.09e+09 L⁻¹ and 3.82e+09 L⁻¹ | patients with malignant neoplasms (14 mg group, cervix carcinoma in situ (stage 0) after 1.5 years treatment): one | patients with increased ALT ≧3×ULN and total bilirubin ≧2×ULN (14 mg group): one | Any event leading to death [2]: 0 n (%) | Any treatment emergent adverse event leading to discontinuation of study drug [2]: 39 (10.9) n (%) | Any treatment emergent serious adverse event [2]: 57 (15.9) n (%) | At least one treatment emergent adverse event [2]: 325 (90.8) n (%) | TEAE Alanine aminotransferase increased (reported as adverse event by the investigator) [2]: 51 (14.2) no. of patients (%) | TEAE Back pain [2]: 41 (11.5) no. of patients (%) | TEAE Diarrhea [2]: 64 (17.9) no. of patients (%) | TEAE Fatigue [2]: 52 (14.5) no. of patients (%) | TEAE Hair thinning/decreased hair density (MedDRA: alopecia) [2]: 47 (13.1) no. of patients (%) | TEAE Headache [2]: 67 (18.7) no. of patients (%) | TEAE Nasopharyngitis [2]: 93 (26.0) no. of patients (%) | TEAE Nausea [2]: 49 (13.7) no. of patients (%) | TEAE Pain in extremity [2]: 33 (9.2) no. of patients (%) | TEAE Urinary tract infection [2]: 37 (10.3) no. of patients (%) | serious opportunistic infections (across groups): no serious opportunistic infections observed | increases in amylase and lipase (mean change from baseline) (across the three treatment groups): No increases | deaths (all groups): No deaths occurred | treatment discontinuation due to increased blood pressure (all groups): No patient discontinued treatment | neutrophil count in three cases of moderate neutropenia (on teriflunomide): 9e+08 L⁻¹ | adverse event potentially attributed to interstitial lung disease (SMQ terms) (teriflunomide groups): No adverse event | average increase in diastolic blood pressure (teriflunomide groups): < 2 mmHg | average increase in systolic blood pressure (teriflunomide groups): < 4 mmHg | mean reduction from baseline in lymphocyte counts [3]: 3e+08 L⁻¹ | mean reduction from baseline in neutrophil counts [3]: 1e+09 L⁻¹
